Laboratory results published in patent US20260262643A1, “HERBICIDAL BENZOXAZINES” (FMC CORPORATION, priority 2022, published 2026).

Key:
goosegrass [1] = assay: Test A postemergence; format: in vivo, Eleusine indica; conditions: 0 to 100 scale; for Plant response rating, Goosegrass: 1000 g ai/ha, Postemergence
Source text: (§1) Seeds of plant species selected from barnyardgrass (Echinochloa crusgalli), blackgrass (Alopecurus myosuroides), corn (Zea mays), foxtail, giant (giant foxtail, Setaria faberi), goosegrass (Eleusine indica), kochia (Bassia scoparia), oat, wild (wild oat, Avena fatua), pigweed, palmer (palmer amaranth, palmer pigweed, Amaranthus palmeri), Pigweed, Redroot (redroot pigweed, Amaranthus retroflexus), ragweed (common ragweed, Ambrosia artemisiifolia), ryegrass, Italian (italian ryegrass, Lolium multiflorum), soybean (Glycine max), and wheat (Triticum aestivum) were planted into a blend of loam soil and sand and treated preemergence with a directed soil spray using test chemicals formulated in a non-phytotoxic solvent mixture which included a surfactant. At the same time, plants selected from these crops and weed species and also galium (catchweed bedstraw, Galium aparine) and horseweed (Erigeron canadensis) were planted in pots containing the same blend of loam soil and sand and treated with postemergence applications of test chemicals formulated in the same manner. Plants ranged in height from 2 to 10 cm and were in the one- to two-leaf stage for the postemergence treatment. Treated plants and untreated controls were maintained in a greenhouse for 10 days, after which time all treated plants were compared to untreated controls and visually evaluated for injury. Plant response ratings, summarized in Table A, are based on a 0 to 100 scale where 0 is no effect and 100 is complete control. A dash (-) response means no test result.

ragweed [2] = assay: Test A postemergence; format: in vivo, Ambrosia artemisiifolia; conditions: 0 to 100 scale; for Plant response rating, Ragweed: 1000 g ai/ha, Postemergence
Source text: as §1

blackgrass [3] = assay: Test A preemergence; format: in vivo, Alopecurus myosuroides
Source text: as §1

ryegrass, Italian [4] = assay: Test A preemergence; format: in vivo, Lolium multiflorum
Source text: as §1

ryegrass, Italian [5] = assay: Test A postemergence; format: in vivo, Lolium multiflorum; conditions: 0 to 100 scale; for Plant response rating, Ryegrass, Italian: 1000 g ai/ha, Postemergence
Source text: as §1

foxtail, giant [6] = assay: Test A postemergence; format: in vivo, Setaria faberi; conditions: 0 to 100 scale; for Plant response rating, Foxtail, Giant: 1000 g ai/ha, Postemergence
Source text: as §1

kochia [7] = assay: Test A preemergence; format: in vivo, Bassia scoparia
Source text: as §1

goosegrass [8] = assay: Test A preemergence; format: in vivo, Eleusine indica
Source text: as §1

horseweed = assay: Test A postemergence; format: in vivo, Erigeron canadensis; conditions: 0 to 100 scale; for Plant response rating, Horseweed: 1000 g ai/ha, Postemergence
Source text: as §1

pigweed, palmer [9] = assay: Test A postemergence; format: in vivo, Amaranthus palmeri; conditions: 0 to 100 scale; for Plant response rating, Pigweed, Palmer: 1000 g ai/ha, Postemergence
Source text: as §1

blackgrass [10] = assay: Test A postemergence; format: in vivo, Alopecurus myosuroides; conditions: 0 to 100 scale; for Plant response rating, Blackgrass: 1000 g ai/ha, Postemergence
Source text: as §1

ragweed [11] = assay: Test A preemergence; format: in vivo, Ambrosia artemisiifolia
Source text: as §1

kochia [12] = assay: Test A postemergence; format: in vivo, Bassia scoparia; conditions: 0 to 100 scale; for Plant response rating, Kochia: 1000 g ai/ha, Postemergence
Source text: as §1

galium = assay: Test A postemergence; format: in vivo, Galium aparine; conditions: 1000 g ai/ha, Postemergence; 0 to 100 scale
Source text: as §1

foxtail, giant [13] = assay: Test A preemergence; format: in vivo, Setaria faberi
Source text: as §1

pigweed, palmer [14] = assay: Test A preemergence; format: in vivo, Amaranthus palmeri
Source text: as §1

oat, wild [15] = assay: Test A preemergence; format: in vivo, Avena fatua; conditions: 125 g ai/ha, visual injury after 10 days, 0 to 100 scale, 0 is no effect, 100 is complete control
Source text: as §1

soybean [16] = assay: Test A preemergence; format: in vivo, Glycine max; conditions: 125 g ai/ha, visual injury after 10 days, 0 to 100 scale, 0 is no effect, 100 is complete control
Source text: as §1

corn [17] = assay: Test A postemergence; format: in vivo, Zea mays; conditions: 125 g ai/ha, postemergence, 10 days; 0 to 100 scale, 0 no effect, 100 complete control
Source text: as §1

corn [18] = assay: Test A preemergence; format: in vivo, Zea mays; conditions: 125 g ai/ha, visual injury after 10 days, 0 to 100 scale, 0 is no effect, 100 is complete control
Source text: as §1

wheat [19] = assay: Test A preemergence; format: in vivo, Triticum aestivum; conditions: 125 g ai/ha, visual injury after 10 days, 0 to 100 scale, 0 is no effect, 100 is complete control
Source text: as §1

soybean [20] = assay: Test A postemergence; format: in vivo, Glycine max; conditions: 125 g ai/ha, postemergence, 10 days; 0 to 100 scale, 0 no effect, 100 complete control
Source text: as §1

oat, wild [21] = assay: Test A postemergence; format: in vivo, Avena fatua; conditions: 125 g ai/ha, postemergence, 10 days; 0 to 100 scale, 0 no effect, 100 complete control
Source text: as §1

wheat [22] = assay: Test A postemergence; format: in vivo, Triticum aestivum; conditions: 125 g ai/ha, postemergence, 10 days; 0 to 100 scale, 0 no effect, 100 complete control
Source text: as §1

[23] = 1000 g ai/ha, 0 to 100 scale (0 no effect, 100 complete control), 10 days
[24] = 125 g ai/ha, postemergence, 10 days, 0 no effect, 100 complete control
[25] = 125 g ai/ha, visual injury after 10 days, 0 to 100 scale, 0 is no effect, 100 is complete control

SMILES: C[C@H]1CN(C(=O)c2cccc(-n3cncn3)c2)c2cc([N+](=O)[O-])ccc2O1 [Compound 49]
- Plant response rating, Goosegrass (goosegrass [1]): 10
- Plant response rating, Ragweed (ragweed [2]): 30
- Plant response rating, Blackgrass (blackgrass [3]; [23]): 0
- Plant response rating, Ryegrass, Italian (ryegrass, Italian [4]; [23]): 30
- Plant response rating, Ryegrass, Italian (ryegrass, Italian [5]): 30
- Plant response rating, Foxtail, Giant (foxtail, giant [6]): 10
- Plant response rating, Kochia (kochia [7]; [23]): 0
- Plant response rating, Goosegrass (goosegrass [8]; [23]): 30
- Plant response rating, Horseweed (horseweed): 0
- Plant response rating, Pigweed, Palmer (pigweed, palmer [9]): 0
- Plant response rating, Blackgrass (blackgrass [10]): 0
- Plant response rating, Ragweed (ragweed [11]; [23]): 0
- Plant response rating, Kochia (kochia [12]): 10
- Plant response rating, Galium (galium): 30
- Plant response rating, Foxtail, Giant (foxtail, giant [13]; [23]): 20
- Plant response rating, Pigweed, Palmer (pigweed, palmer [14]; [23]): 0

SMILES: CCC(C)c1ncn(-c2cccc(C(=O)N3C[C@H](C)Oc4c(C)cccc43)c2)n1 (stereo partly shown) [Compound 87]
- Goosegrass plant response rating (goosegrass [1]; [24]): 30
- Ragweed plant response rating (ragweed [2]; [24]): 50
- Plant response rating, Oat, Wild (oat, wild [15]): 20
- Plant response rating, Blackgrass (blackgrass [3]; [25]): 40
- Plant response rating, Ryegrass, Italian (ryegrass, Italian [4]; [25]): 100
- Ryegrass, Italian plant response rating (ryegrass, Italian [5]; [24]): 10
- Plant response rating, Soybean (soybean [16]): 0
- Foxtail, Giant plant response rating (foxtail, giant [6]; [24]): 10
- Plant response rating, Kochia (kochia [7]; [25]): 30
- Plant response rating, Goosegrass (goosegrass [8]; [25]): 80
- Horseweed plant response rating (horseweed; [24]): 0
- Pigweed, Palmer plant response rating (pigweed, palmer [9]; [24]): 30
- Corn plant response rating (corn [17]): 10
- Plant response rating, Corn (corn [18]): 10
- Blackgrass plant response rating (blackgrass [10]; [24]): 10
- Plant response rating, Wheat (wheat [19]): 0
- Plant response rating, Ragweed (ragweed [11]; [25]): 0
- Kochia plant response rating (kochia [12]; [24]): 70
- Soybean plant response rating (soybean [20]): 40
- Oat, Wild plant response rating (oat, wild [21]): 20
- Plant response rating, Foxtail, Giant (foxtail, giant [13]; [25]): 50
- Plant response rating, Pigweed, Palmer (pigweed, palmer [14]; [25]): 30
- Wheat plant response rating (wheat [22]): 10

SMILES: Cc1csc(-c2cccc(C(=O)N3C[C@H](C)Oc4c(Cl)cccc43)c2)n1 [Compound 124]
- Plant response rating, Goosegrass (goosegrass [1]): 0
- Plant response rating, Ragweed (ragweed [2]): 0
- Plant response rating, Blackgrass (blackgrass [3]; [23]): 0
- Plant response rating, Ryegrass, Italian (ryegrass, Italian [4]; [23]): 60
- Plant response rating, Ryegrass, Italian (ryegrass, Italian [5]): 0
- Plant response rating, Foxtail, Giant (foxtail, giant [6]): 40
- Plant response rating, Kochia (kochia [7]; [23]): 0
- Plant response rating, Goosegrass (goosegrass [8]; [23]): 60
- Plant response rating, Horseweed (horseweed): 0
- Plant response rating, Pigweed, Palmer (pigweed, palmer [9]): 60
- Plant response rating, Blackgrass (blackgrass [10]): 0
- Plant response rating, Ragweed (ragweed [11]; [23]): 0
- Plant response rating, Kochia (kochia [12]): 30
- Plant response rating, Galium (galium): 30
- Plant response rating, Foxtail, Giant (foxtail, giant [13]; [23]): 80
- Plant response rating, Pigweed, Palmer (pigweed, palmer [14]; [23]): 30
